Experimental data from the NIST ThermoML archive (doi:10.1021/je020191g).
“And” between values parts separate entries of the source, which are not always exact repeats. Equal values may be shown once.

Tests used:
[1] = 101.33 kPa, Liquid
[2] = xn = mol fraction of the nth substance listed; conditions: 101.33 kPa, Liquid

C1CCNC1 [pyrrolidine]
[1]
Conditions	mass density [kg/m3]
298.15 K	854.6
323.15 K	833.7

O [water]
[1]
Conditions	mass density [kg/m3]
323.15 K	988.04
333.15 K	983.2

C1COCCN1 [tetrahydro-1,4-oxazine] + O
mass density, [2]
Conditions	298.15 K	333.15 K
x1 = 0.1	1023.2 kg/m3 and 1010.6 kg/m3	1001.2 kg/m3 and 1005.4 kg/m3
x1 = 0.199	1031.5 kg/m3 and 1025.9 kg/m3	1010.5 kg/m3 and 1006.2 kg/m3
x1 = 0.298	1030.9 kg/m3	1010.6 kg/m3
x1 = 0.299	1029.6 kg/m3	1006.8 kg/m3
x1 = 0.398	1029.8 kg/m3 and 1028.4 kg/m3	1006.1 kg/m3 and 1005.1 kg/m3
x1 = 0.497	1023.4 kg/m3	1000.6 kg/m3
x1 = 0.498	1025.5 kg/m3	996.6 kg/m3
x1 = 0.591	1016.8 kg/m3	990.3 kg/m3
x1 = 0.597	1019.4 kg/m3	999 kg/m3
x1 = 0.692	1013.5 kg/m3	982.6 kg/m3
x1 = 0.696	1013.5 kg/m3	989.6 kg/m3
x1 = 0.793	1005.7 kg/m3	976 kg/m3
x1 = 0.796	1003.9 kg/m3	976.4 kg/m3
x1 = 0.895	997.4 kg/m3	968.9 kg/m3
x1 = 0.897	999.2 kg/m3	969.3 kg/m3
x1 = 0.995	996 kg/m3 and 994.9 kg/m3	967.3 kg/m3 and 964.4 kg/m3

C1CCNC1 [pyrrolidine] + O
mass density, [2]
Conditions	298.15 K	323.15 K
x1 = 0.099	976 kg/m3	960 kg/m3
x1 = 0.1	973.9 kg/m3	963.6 kg/m3
x1 = 0.199	956.6 kg/m3	941.5 kg/m3
x1 = 0.204	952.8 kg/m3	937.2 kg/m3
x1 = 0.297	934.7 kg/m3	921.2 kg/m3
x1 = 0.299	938.8 kg/m3	924.5 kg/m3
x1 = 0.396	925.8 kg/m3	904 kg/m3
x1 = 0.399	925.4 kg/m3	907.4 kg/m3
x1 = 0.497	912.1 kg/m3	891.1 kg/m3
x1 = 0.498	911.5 kg/m3	891.2 kg/m3
x1 = 0.589	901.1 kg/m3	883.5 kg/m3
x1 = 0.596	900.2 kg/m3	879.9 kg/m3
x1 = 0.675	893.8 kg/m3	871.3 kg/m3
x1 = 0.697	893.4 kg/m3	868.5 kg/m3
x1 = 0.786	879.9 kg/m3	858.3 kg/m3
x1 = 0.796	877.1 kg/m3	858.6 kg/m3
x1 = 0.882	865.3 kg/m3	843.5 kg/m3
x1 = 0.888	865.6 kg/m3	845.6 kg/m3
x1 = 0.995	852.9 kg/m3 and 856.2 kg/m3	834.6 kg/m3 and 832.8 kg/m3

O [water] + C1COCCN1
Conditions	mass density [kg/m3]
[2], 333.15 K, x2 = 0	983.2

C1COCCN1 [tetrahydro-1,4-oxazine]
[1]
Conditions	mass density [kg/m3]
298.15 K	996
333.15 K	965.9

O [water] + C1CCNC1
Conditions	mass density [kg/m3]
[2], 323.15 K, x2 = 0	988.04
